According to US6410588B1, “Use of cannabinoids as anti-inflammatory agents” (priority 1998, dated 2002):
Read-outs that look alike come from different tables or passages of the source.

Legend:
IL-2 = conditions: cited from earlier work
IFNγ = conditions: cited from earlier work
IL-11 = test: human rheumatoid synovial cell IL-11 production (ELISA); type: cell-based; conditions: for IL-11, mean: 48 hours culture
Experimental: (§1) Synovial membrane tissue was obtained from a patient fulfilling the revised American College of Rheumatology criteria for rheumatoid arthritis who underwent joint replacement surgery. Synovial cell cultures were prepared as described. Briefly, synovial membrane tissue was digested with collagenase type A (1 mg/ml) and DNAase I (0.15 mg/ml) in RPMI 1640 containing 5% FCS for 2 hours at 37° C.
(§2) Similarly, rheumatoid synovial cells spontaneously produce cytokines when cultured in vitro. […] With restricted number of human synovial cells in this sample, the optimal dose for inhibiting TNFα may have been missed.

IL-8 = test: human rheumatoid synovial cell IL-8 production (ELISA); type: cell-based; conditions: for IL-8, mean: 48 hours culture
Experimental: as §1, §2

IL-1β release = IL-1β release by LPS-stimulated human PBMC; type: cell-based; conditions: for IL-1β: LPS 10 ng/ml 24 hours, mean ± SEM
Experimental: CBD was dissolved in ethanol/DMSO.
Peripheral blood mononuclear cells (PBMC) were isolated from the whole blood of healthy donors by Ficoll Hypaque gradient. […] After this 6 hour pretreatment period, the cells were stimulated with either LPS from Salmonella typhimirium, 10 ng/ml, for 24 hours (for TNF and IL-1β) or with PHA, 5 μg/ml, for 72 hours (for IFNγ) Viability of the PBMC was assessed with the MTT test.
Human PBMC were cultured and stimulated with or without CBD, as described in Materials and Methods. The stimulus for TNF and IL-1 production was LPS, the stimulus for IFNγ production was PHA. The results are the mean of triplicate wells±SEM. ND=not done.

[1] = test system: mRNA of IL-1, IL-6 and TNFα; conditions: BALB/C mice injected with cannabidiol; cited from earlier work
[2] = test system: collagen induced arthritis (CIA)
Experimental: Bovine type II collagen (CII) was purified from hyaline cartilage, as described [Williams, 1992# 18]. Male DBA/1 mice (8-12 weeks old) were immunized with 100 μg of CII emulsified in complete Freund's adjuvant CFA (Difco, Detroit, Mich.) by intradermal injection at the base of the tail. From day 15 after immunization onwards, mice were examined daily for onset of CIA using two clinical parameters: paw swelling and clinical score [Williams, PNAS, Vol. 89, pages 97848]. Paw swelling was assessed by measuring the thickness of the affected hind paws with 0-10 mm callipers (Kroeplin, Schluchtern, Germany). For the clinical score, 0=normal; 1=slight swelling and erythema; 2=pronounced edema; 3=joint rigidity. Each limb was graded, resulting in a maximal clinical score of 12 per animal. The arthritis was monitored over 10 days, after which the mice were sacrificed.
Mice injected with vehicle alone (ethanolcremophor in saline) served as controls (n=23).

nitric oxide (NO) = conditions: macrophages activated by LPS and IFNγ; cited from earlier work
[3] = test system: spleen cells (splenocytes); test: mitogen-induced cell proliferation of spleen cells; type: cell-based, mouse (BALB/c, C57BL/6)
Experimental: Cultures were pulsed with ^3H-thymidine and harvested 6 hours later.
Female mice (aged 8-12 weeks) of strains C57BL/6 (B6, H-2^b) and BALB/c (H-2^d) were purchased from Harlan, Jerusalem, and maintained under specific pathogen-free (SPF) conditions in the animal facilities of the Hebrew University Medical School, Jerusalem, in accordance with the Hebrew University guidelines, DMEM (Biological Industries, Beit Haemek. Israel) was supplemented with 1 mM sodium pyruvate, 10 mM HEPES buffer, 0.5 mM asparagine-HCl, 0.03 mM filic acid, 0.5 mM L-aspartic acid, 5×10^−5M 2-mercaptoethanol, 2 mM glutamine, antibotics and 10% FCS (complete DMEM).
Spleen cells, at a final concentration of 5×10^6 cells/ml, were cultured in triplicate wells of flat-bottom microtiter plates (Nunc, Denmark) in medium alone, 2.5 μg/ml concanavalin A (ConA. Biomakor, Israel) or 50 μ/ml lipopolysaccharide (LPS, Difco). The final volume was 200 μl/well. Following two days of incubation at 37° C., in an 8% CO2-in-air incubator (as in all other procedures described here), 1 μCi of ^3H-thymidine was added to each well. Cells were harvested 6 h later, with a Tomtec (USA) cell harvester and counted in a MicroBeta scintillation counter (Wallac, Finland).

[4] = test system: 51Cr-labeled P815 lymphoma cell line; test: cell mediated cytotoxicity after mixed leukocyte culture; type: cell-based, mouse
Experimental: Cells harvested from MLC were tested for their cytotoxic activity against ^51Cr-labeled P815 (H-2^d)lymphoma cell line. Cytotoxic activity is given in LU/10^6cells (see Materials and Methods).
MHC-restricted CTL were activated in MLC by co-culturing 2.5×10^6 responding spleen cells for 5 days with an equal number of irradiated (25 Gy) allogeneic splenocytes in 2 ml/well of complete DMEM in 24-well plates (Costar).
Cytotoxic assays were performed as described previously (Leshem et al, 1999). Briefly, effector cells were serially diluted (threefold) in triplicate wells of conical-bottom microplates (Nunc) and mixed with washed ^51Cr-labeled target cells in a final 200 μl volume to make 4-6 effector target cell ratios. Microplates were centrifuged (70×g, 2 min.) and incubated for 4 h. They were then centrifuged at 200×g for 5 min. and the supernatants (150 μl) were counted in an automatic […] (LKB-Wallac, Finland). Percent of specific cytotoxic activity was calculated according to the formula: [(experimental cpm−background cpm)/(maximal cpm−background cpm)×100]. Lytic units (LU), were drawn from the cytotoxicity measured at 4-6 E:T cell ratios. One 1 LU is defined as the number of effector cells causing lysis of 30% target cells (Leshem and Brass, 1998).

SMILES: C=C(C)[C@@H]1CCC(C)=C[C@H]1c1c(O)cc(CCCCC)cc1O [CBD, Cannabidiol]
- IL-2 secretion (IL-2): did not affect IL-2 secretion
- IFNγ synthesis (IFNγ; high concentrations (5-24 μg/ml)): completely blocked IFNγ synthesis
- IFNγ production (IFNγ; low concentrations): increase IFNγ production
- IL-11 release (in words) (IL-11): dose-dependent inhibition
- IL-11, mean (IL-11; CBD 0.1 μg/ml): 2151 pg/mL
- IL-11, mean (IL-11; CBD 1 μg/ml): 2059 pg/mL
- IL-11, mean (IL-11; CBD 20 μg/ml): 100 pg/mL
- IL-8 release (in words) (IL-8): dose-dependent inhibition
- IL-8, mean (IL-8; CBD 0.1 μg/ml): 174 ng/mL
- IL-8, mean (IL-8; CBD 1 μg/ml): 183 ng/mL
- IL-8, mean (IL-8; CBD 20 μg/ml): 87 ng/mL
- IL-1β (IL-1β release; CBD 0.1 μg/ml): 621 ± 82 pg/mL
- IL-1β (IL-1β release; CBD 1 μg/ml): 671 ± 74 pg/mL
- IL-1β (IL-1β release; CBD 2.5 μg/ml): 630 ± 81 pg/mL
- IL-1β (IL-1β release; CBD 5 μg/ml): 908 ± 99 pg/mL
- IL-1β (IL-1β release; CBD 10 μg/ml): 1575 ± 335 pg/mL
- IL-1β (IL-1β release; CBD 20 μg/ml): 2292 ± 251 pg/mL
- IL-1β (IL-1β release; CBD 30 μg/ml): 4158 ± 313 pg/mL
- effect on LPS-induced IL-1β release (in words) (IL-1β release; higher concentrations of CBD): increased their release
- effect on LPS-induced IL-1β release (in words) (IL-1β release; lower concentrations of CBD (0.1 to 5 μg/ml)): significantly suppressed
- level of mRNA of IL-1, IL-6 and TNFα [1]: did not show significant change
- therapeutic effect on CIA (clinical score, paw thickness) ([2]; 2.5 mg/kg i.p. daily until day 10): no effect at all
- therapeutic effect on CIA (clinical score, paw thickness) ([2]; 10 mg/kg i.p. daily until day 10): slight therapeutic effect
- nitric oxide (NO) production (nitric oxide (NO)): inhibited
- response of splenocytes to Concanavalin A (ConA) and LPS (3H-thymidine) ([3]; BALB/C splenocytes): decreases the response
- response of splenocytes to Concanavalin A (ConA) and LPS (3H-thymidine) ([3]; C57BL/6 splenocytes): decreases the response
- cell mediated cytotoxicity ([4]; above approximately 1 μg/ml CBD): decrease in cytotoxicity
- cell mediated cytotoxicity ([4]; low concentrations of CBD): increase cytotoxicity
